# Measurements: PubChem BioAssay AID179 (DTP/NCI, 2004)
# The source made the active and inactive calls.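 Rule for the calls: active = compounds giving half or more protection of infected cells from virus-caused growth loss, again on retest; inactive = the rest.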
# Tested on: CEM cells HIV-1 protection, formazan growth assay
# Test: NCI AIDS Antiviral Assay
# Settings: for IC50: measured here: growth of uninfected CEM cells
# How it was run: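 Screen of anti-HIV-1 activity in human CEM cells using a formazan-based growth measurement at five drug concentrations. Hits with 50% or greater protection were repeated, and confirmation required reproducible complete protection.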
Compound,outcome,EC50 [µM],IC50 [µM]
O=C(NC(=O)c1cn(CCN2CCN(C(=O)NCCCCCCNC(=O)N3CCN(CCn4cc(C(=O)NC(=O)OCc5ccccc5)c(=O)[nH]c4=O)CC3)CC2)c(=O)[nH]c1=O)OCc1ccccc1,inactive,–,–
O=C(CC(=O)C1=CNc2ccccc2S1)C(=O)Nc1ccc(Cl)cc1,–,> 126,> 126
NC(=O)CC1C(CO)OC(n2ccc(=O)[nH]c2=O)C1O (configuration not stated),–,> 200,> 200
CC(=C(C(N)=O)C(N)=O)C1C=C(c2cccs2)CC(c2ccc(Cl)cc2)=C1O (configuration not stated),–,> 200,> 100
COc1cc2c(c(OC)c1)C(C)=NC(C)C2 (configuration not stated),–,> 200,141
O=S1(=O)NNC(=NCc2ccc(Cl)c(Cl)c2)c2ccccc21,inactive,–,–
COc1ccc([N+](=O)[O-])c2c(NCCCN(C)C)c3ccccc3nc12,–,> 0.2,0.138
Nc1ccc(C(=O)NN2C(=O)C(Cl)C2c2cccc([N+](=O)[O-])c2)cc1 (configuration not stated),–,> 200,10.2
CC1CN1c1c(C(=O)/C=C/c2ccc(Cl)cc2)c(-c2ccccc2)nn(C)c1=O (configuration not stated),–,> 8.91,> 8.91
Cc1ccc(-c2nc3cc(N4CCN(C)CC4)c(F)cc3[nH]2)cc1,–,> 200,26.3
Cc1ccc2oc(=O)c(C(=O)Nc3nc(C45CC6CC(CC(C6)C4)C5)cs3)cc2c1,–,> 100,> 100
O=C(Nc1ccccc1)C(=O)C(C(=O)c1ccccc1)C(c1ccccc1)c1ccccc1 (configuration not stated),–,> 200,37.2
C/C(CC(=O)Nc1ccccc1C)=N/NS(=O)(=O)c1ccc(C)cc1,–,> 363,> 363
CCN1CCC(O)(c2ccc(OC)cc2)C(C(=O)c2ccc(OC)cc2)C1 (configuration not stated),–,> 550,14.5
Cc1cc(C)c2c(c1)N[S@@](=O)S2,–,> 13.5,> 13.5
CC(C)(CN1CCCCC1)C(=O)CC(SCCS(=O)(=O)O)c1ccccc1 (configuration not stated),–,> 200,3.31
CC(=O)N[C@H]1CC2(C=C(Br)C(=O)C(Br)=C2)OC1=O,–,> 33.1,5.13
COC1(OC)c2ccccc2C2(O)c3ccccc3C(=O)C12 (configuration not stated),inactive,–,–

Compound,outcome,EC50 [µM],IC50 [µM]
CCCCNC(=S)Nn1c(-c2ccccc2)nc2ccccc2c1=O,–,> 20.4,> 20.4
O=c1c(CCO)c(C2CC2)n2n1CCCC2,–,> 1120,> 200
O=C(O)c1cc(S(=O)(=O)O)c2cccnc2c1O,–,> 200,> 200
C/C([O-])=c1\c(C)nn2ccc[n+]12,–,> 309,> 309
COC(=N)CCSSCCC(=N)OC,–,> 200,> 200
O=C1CCC(N2C(=O)C3C(C2=O)C2(Cl)C(Cl)=C(Cl)C3(Cl)C2(Cl)Cl)C(=O)N1 (configuration not stated),–,> 200,> 200
O=S(=O)(O)c1ccc2c(N=Nc3cccc4ccccc34)c(O)c(S(=O)(=O)O)cc2c1,inactive,–,–
COc1ccc(C(=O)Nc2ccn(CCOC(=O)c3ccc(OC)cc3)c(=O)n2)cc1,–,> 44.7,> 44.7
C=CCn1c(-c2ccc(Cl)cc2Cl)csc1=Nc1c(C)n(C)n(-c2ccccc2)c1=O,–,> 200,6.61
Nc1ccc2c(c1)C(=O)N(O)C2=O,–,> 1410,759
O=C(O)c1ccsc1C(=O)c1ccccc1,–,> 200,> 200
CCCCNc1nc2nc[nH]c2c(=O)[nH]1,–,> 200,> 200
CC(=O)/C=C\C(=O)NNS(=O)(=O)c1ccc(C)cc1,–,> 891,832
NC(CC(=O)O)C(=O)NC1Cc2ccccc2C1=O (configuration not stated),–,> 200,97.7
Cc1ccc(N(C(=O)Nc2ccccc2)C2=NCC(C)S2)cc1C (configuration not stated),–,> 200,> 200
COc1cccc(C2SCC(=O)N2c2ccc(-n3c(-c4ccccc4)nc4ccccc4c3=O)cc2)c1OC (configuration not stated),–,> 200,> 200
COCCOc1cc(C)cc(/C=C(C)/C=C/C2=C(C)CCCC2(C)C)n1,inactive,–,–
CCN(CC)CCCNc1ncnc2c1C(c1ccccc1)c1ccccc1-2 (configuration not stated),–,> 676,33.1
